Drawing on ChEMBL document CHEMBL1153282, “N-substituted 2'-(aminoaryl)benzothiazoles as kinase inhibitors: hit identification and scaffold hopping” (Bioorg Med Chem Lett, 2009), this text covers IC50 for 21 compounds.

Experiment [1] deals with Proto-oncogene tyrosine-protein kinase Src (Homo sapiens, UniProt P12931). The experiment is described as follows: Inhibition of Src by virtual HTS assay.
Another experiment addresses Insulin receptor (Homo sapiens, UniProt P06213). The experiment is described as follows: Inhibition of insulin receptor by virtual HTS assay.
The target of another experiment is T1, Aurora kinase A (Homo sapiens, UniProt O14965).
T1 sequence (O14965 whole entry): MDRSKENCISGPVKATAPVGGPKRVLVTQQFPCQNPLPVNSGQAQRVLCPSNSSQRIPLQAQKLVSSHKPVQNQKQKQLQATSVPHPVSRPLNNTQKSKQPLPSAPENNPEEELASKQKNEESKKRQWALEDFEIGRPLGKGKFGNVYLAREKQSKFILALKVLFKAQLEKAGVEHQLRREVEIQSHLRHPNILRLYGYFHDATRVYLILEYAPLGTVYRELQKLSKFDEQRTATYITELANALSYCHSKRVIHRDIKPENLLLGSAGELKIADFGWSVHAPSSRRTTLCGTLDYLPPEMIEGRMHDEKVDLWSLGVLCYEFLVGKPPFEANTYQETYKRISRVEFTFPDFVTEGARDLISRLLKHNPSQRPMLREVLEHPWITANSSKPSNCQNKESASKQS
The experiment is described as follows: Inhibition of Aurora A by virtual HTS assay.

In another experiment the target is Aurora kinase B (Homo sapiens, UniProt Q96GD4). The experiment in a line: Inhibition of Aurora B by virtual HTS assay.
Experiment [2] concerns the target Receptor tyrosine-protein kinase erbB-2 (Homo sapiens, UniProt P04626). The experiment is described as follows: Inhibition of ErbB2 by virtual HTS assay.
Experiment [3] concerns the target Epidermal growth factor receptor (Homo sapiens, UniProt P00533). The experiment in a line: Inhibition of EGFR by virtual HTS assay.
Experiment [4] addresses Insulin-like growth factor 1 receptor (Homo sapiens, UniProt P08069). The experiment in a line: Inhibition of IGF1R by virtual HTS assay.
In experiment [5] the target is Vascular endothelial growth factor receptor 2 (Homo sapiens, UniProt P35968). The experiment in a line: Inhibition of VEGFR2 by virtual HTS assay.
The target of the next experiment is Angiopoietin-1 receptor (Homo sapiens, UniProt Q02763). The experiment is described as follows: Inhibition of TIE2 by virtual HTS assay.
Experiment [6] addresses Vascular endothelial growth factor receptor 3 (Homo sapiens, UniProt P35916).
Description: Inhibition of VEGFR3 by virtual HTS assay
In another experiment the target is T2, Ephrin type-B receptor 4 (Homo sapiens, UniProt P54760).
T2 sequence (P54760 whole entry): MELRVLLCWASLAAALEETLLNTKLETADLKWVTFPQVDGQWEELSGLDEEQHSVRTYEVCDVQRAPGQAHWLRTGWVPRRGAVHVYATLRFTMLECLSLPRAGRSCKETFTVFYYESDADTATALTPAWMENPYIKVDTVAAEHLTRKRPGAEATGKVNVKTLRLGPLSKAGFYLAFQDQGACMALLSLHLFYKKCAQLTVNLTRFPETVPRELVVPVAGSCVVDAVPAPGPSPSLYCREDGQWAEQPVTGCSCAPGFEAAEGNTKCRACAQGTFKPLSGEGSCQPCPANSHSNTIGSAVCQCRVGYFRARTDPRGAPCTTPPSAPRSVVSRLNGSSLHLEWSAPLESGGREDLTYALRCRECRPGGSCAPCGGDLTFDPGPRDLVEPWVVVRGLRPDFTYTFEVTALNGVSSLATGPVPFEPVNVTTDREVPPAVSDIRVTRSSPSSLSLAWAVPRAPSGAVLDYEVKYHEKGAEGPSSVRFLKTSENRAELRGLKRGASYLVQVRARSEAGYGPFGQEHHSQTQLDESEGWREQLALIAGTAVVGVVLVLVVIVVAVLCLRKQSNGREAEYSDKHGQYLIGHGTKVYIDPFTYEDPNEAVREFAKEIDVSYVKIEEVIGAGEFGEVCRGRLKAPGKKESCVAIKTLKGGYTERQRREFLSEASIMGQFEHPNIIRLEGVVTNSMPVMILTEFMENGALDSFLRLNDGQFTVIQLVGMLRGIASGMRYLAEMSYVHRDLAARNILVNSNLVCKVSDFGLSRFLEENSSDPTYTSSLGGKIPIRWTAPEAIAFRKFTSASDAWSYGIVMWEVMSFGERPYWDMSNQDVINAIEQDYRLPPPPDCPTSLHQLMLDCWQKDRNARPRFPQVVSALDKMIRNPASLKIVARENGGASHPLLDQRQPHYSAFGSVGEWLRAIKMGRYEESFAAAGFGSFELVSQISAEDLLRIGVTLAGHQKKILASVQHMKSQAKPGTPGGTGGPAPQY
The experiment in a line: Inhibition of EphB4 by virtual HTS assay.

The structures appear in SMILES notation. A value given as a limit tells only on which side of the number the result lay.

Sequence of Insulin receptor (P06213 28-758 limits assumed): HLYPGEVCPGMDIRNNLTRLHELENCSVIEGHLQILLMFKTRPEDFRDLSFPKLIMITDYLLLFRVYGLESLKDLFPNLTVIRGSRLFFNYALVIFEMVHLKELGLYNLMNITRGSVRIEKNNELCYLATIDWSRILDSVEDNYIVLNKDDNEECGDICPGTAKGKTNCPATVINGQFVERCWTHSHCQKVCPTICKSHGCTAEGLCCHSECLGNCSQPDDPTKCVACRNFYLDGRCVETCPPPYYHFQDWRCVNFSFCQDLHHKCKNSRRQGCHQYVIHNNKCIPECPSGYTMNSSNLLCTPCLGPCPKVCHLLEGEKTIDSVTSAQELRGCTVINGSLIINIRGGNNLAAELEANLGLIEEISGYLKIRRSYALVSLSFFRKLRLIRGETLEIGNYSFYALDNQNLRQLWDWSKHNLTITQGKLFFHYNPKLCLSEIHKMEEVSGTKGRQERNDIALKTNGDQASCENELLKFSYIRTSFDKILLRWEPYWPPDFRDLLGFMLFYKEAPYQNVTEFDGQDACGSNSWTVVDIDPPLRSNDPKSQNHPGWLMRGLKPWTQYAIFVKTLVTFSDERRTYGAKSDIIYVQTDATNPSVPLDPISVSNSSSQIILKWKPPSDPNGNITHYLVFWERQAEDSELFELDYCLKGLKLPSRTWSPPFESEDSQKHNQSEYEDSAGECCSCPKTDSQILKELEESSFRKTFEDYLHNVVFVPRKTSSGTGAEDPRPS
Sequence of Insulin receptor (P06213 763-1382 limits assumed): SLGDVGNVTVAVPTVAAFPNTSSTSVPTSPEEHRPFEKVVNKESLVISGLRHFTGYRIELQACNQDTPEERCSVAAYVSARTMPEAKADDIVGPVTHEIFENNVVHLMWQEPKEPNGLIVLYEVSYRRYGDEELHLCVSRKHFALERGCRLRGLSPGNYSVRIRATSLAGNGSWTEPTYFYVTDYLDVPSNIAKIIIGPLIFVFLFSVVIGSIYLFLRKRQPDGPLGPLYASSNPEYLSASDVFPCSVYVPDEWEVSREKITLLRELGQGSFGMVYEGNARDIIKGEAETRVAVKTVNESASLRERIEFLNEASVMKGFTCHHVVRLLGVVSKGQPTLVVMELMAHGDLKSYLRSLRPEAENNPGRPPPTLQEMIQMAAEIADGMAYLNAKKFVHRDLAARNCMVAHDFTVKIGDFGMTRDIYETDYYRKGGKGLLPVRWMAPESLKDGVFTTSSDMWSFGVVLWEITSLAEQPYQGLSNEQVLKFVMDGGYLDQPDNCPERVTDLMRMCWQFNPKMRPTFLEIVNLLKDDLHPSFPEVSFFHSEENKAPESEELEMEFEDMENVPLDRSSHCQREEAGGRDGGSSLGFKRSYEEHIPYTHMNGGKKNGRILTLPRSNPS
Sequence of Angiopoietin-1 receptor (Q02763 whole entry): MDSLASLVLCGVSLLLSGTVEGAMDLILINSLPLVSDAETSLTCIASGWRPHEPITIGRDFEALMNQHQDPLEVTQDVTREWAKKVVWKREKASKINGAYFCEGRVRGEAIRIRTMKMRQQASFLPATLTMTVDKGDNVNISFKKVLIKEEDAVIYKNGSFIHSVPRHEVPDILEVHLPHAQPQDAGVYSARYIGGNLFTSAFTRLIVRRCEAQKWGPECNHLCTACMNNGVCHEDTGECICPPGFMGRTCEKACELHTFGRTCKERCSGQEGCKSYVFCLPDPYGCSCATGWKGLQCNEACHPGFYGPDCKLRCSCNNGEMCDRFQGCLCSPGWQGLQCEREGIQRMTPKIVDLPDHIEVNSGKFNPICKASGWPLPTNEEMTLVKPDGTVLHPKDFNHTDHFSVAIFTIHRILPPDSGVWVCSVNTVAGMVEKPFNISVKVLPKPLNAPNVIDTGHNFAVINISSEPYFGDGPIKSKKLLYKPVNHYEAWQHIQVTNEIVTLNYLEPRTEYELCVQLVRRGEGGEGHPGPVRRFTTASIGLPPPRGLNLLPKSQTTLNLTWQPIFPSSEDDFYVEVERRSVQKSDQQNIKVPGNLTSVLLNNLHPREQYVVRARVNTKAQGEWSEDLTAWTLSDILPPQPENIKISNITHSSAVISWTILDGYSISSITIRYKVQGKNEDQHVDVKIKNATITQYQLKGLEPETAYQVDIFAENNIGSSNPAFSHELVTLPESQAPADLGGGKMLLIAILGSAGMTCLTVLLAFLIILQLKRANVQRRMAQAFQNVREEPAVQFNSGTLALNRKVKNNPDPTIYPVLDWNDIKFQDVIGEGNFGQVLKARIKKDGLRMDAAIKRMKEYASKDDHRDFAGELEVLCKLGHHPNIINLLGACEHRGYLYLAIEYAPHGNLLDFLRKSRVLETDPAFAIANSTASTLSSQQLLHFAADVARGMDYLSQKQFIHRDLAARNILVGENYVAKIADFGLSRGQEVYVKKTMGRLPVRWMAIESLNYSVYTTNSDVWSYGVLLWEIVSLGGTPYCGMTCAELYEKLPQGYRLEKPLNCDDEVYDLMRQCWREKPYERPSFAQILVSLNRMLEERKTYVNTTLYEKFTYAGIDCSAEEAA
Sequence of Insulin-like growth factor 1 receptor (P08069 31-736 limits assumed): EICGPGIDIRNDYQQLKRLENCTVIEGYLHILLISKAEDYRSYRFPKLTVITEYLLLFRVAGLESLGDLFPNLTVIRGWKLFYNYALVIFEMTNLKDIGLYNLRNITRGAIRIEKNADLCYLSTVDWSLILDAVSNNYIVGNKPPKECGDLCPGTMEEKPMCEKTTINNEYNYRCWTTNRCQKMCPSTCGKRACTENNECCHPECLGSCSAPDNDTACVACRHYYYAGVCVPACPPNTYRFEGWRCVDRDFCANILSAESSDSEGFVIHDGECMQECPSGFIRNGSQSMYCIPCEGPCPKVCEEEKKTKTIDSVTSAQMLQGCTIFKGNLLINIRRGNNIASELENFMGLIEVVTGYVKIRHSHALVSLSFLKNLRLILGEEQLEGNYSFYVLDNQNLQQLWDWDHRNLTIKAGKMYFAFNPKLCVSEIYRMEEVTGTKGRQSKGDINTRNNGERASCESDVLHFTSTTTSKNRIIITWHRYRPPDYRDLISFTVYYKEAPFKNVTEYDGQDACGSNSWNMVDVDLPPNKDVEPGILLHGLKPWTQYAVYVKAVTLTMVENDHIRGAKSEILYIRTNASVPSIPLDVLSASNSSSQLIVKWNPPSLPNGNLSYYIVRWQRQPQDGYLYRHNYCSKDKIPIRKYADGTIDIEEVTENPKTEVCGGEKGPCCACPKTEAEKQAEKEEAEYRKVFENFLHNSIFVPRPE
Sequence of Insulin-like growth factor 1 receptor (P08069 741-1367 limits assumed): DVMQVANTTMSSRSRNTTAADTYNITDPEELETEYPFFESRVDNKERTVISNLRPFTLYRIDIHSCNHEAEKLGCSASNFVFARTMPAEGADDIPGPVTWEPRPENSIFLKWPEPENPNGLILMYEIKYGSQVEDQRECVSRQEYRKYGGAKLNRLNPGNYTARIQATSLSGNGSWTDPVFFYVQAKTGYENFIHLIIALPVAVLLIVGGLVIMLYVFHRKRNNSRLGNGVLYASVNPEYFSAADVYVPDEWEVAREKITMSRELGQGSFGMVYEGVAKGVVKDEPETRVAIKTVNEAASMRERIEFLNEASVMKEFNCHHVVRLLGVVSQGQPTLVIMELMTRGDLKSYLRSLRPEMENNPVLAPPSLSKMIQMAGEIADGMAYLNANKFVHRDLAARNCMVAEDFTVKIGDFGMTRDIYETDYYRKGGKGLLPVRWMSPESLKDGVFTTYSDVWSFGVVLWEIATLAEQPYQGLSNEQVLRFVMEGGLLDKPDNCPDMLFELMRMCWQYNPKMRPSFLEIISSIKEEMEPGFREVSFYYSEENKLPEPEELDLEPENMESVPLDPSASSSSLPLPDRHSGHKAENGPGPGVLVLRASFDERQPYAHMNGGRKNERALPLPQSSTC
Sequence of Aurora kinase B (Q96GD4 whole entry): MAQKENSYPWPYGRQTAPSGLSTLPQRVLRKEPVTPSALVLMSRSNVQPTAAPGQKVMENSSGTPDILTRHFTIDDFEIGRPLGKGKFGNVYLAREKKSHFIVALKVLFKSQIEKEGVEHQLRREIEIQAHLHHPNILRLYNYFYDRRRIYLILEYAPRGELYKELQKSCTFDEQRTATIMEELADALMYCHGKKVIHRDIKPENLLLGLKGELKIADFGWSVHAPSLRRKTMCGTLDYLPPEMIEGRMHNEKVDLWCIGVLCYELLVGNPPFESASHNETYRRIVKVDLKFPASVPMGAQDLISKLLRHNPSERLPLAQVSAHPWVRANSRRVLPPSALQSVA
Sequence of Proto-oncogene tyrosine-protein kinase Src (P12931 2-536 limits assumed): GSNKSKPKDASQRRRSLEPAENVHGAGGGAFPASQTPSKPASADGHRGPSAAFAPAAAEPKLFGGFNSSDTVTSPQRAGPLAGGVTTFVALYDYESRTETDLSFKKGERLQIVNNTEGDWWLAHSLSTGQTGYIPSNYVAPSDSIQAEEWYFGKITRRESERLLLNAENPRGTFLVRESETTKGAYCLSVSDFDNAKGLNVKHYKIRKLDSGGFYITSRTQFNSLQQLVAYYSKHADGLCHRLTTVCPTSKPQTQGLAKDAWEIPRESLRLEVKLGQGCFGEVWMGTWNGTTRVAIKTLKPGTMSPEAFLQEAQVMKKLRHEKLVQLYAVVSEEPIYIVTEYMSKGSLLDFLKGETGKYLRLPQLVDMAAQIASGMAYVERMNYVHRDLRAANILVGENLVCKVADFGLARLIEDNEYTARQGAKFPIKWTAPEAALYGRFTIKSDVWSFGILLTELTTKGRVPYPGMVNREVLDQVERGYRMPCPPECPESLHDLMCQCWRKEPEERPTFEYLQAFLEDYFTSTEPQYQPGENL

In the case of `COc1cc(Nc2ncnc3nc[nH]c23)ccc1-c1nc2ccccc2s1`, the IC50 in experiment [1] was over 10 µM; at Insulin receptor, over 10 µM; against Aurora kinase A, 5.8 µM; against Aurora kinase B, over 10 µM; in [2], over 10 µM; in [3], 2.6 µM. Also, the IC50 was over 10 µM in experiment [4], 9.2 µM in [5], 1.3 µM at Angiopoietin-1 receptor and 3.4 µM in experiment [6].

Consider `COc1cc2ncnc(Nc3ccc(-c4nc5ccccc5s4)c(O)c3)c2cc1OC`, for which the IC50 in experiment [1] was over 10 µM; against Insulin receptor it was over 10 µM; at Aurora kinase A, over 10 µM; against Aurora kinase B, 4.2 µM; in [3] it was 2.2 µM; in [4] it was over 10 µM. For the same compound, the IC50 in experiment [5] was 6.9 µM; on Ephrin type-B receptor 4 it was over 10 µM.

Consider `Cc1cc(Nc2cc(Nc3ccc(-c4nc5ccccc5s4)cc3)ccn2)[nH]n1`, for which the 50% inhibitory concentration (IC50) was over 10 µM against Insulin receptor; 1.3 µM against Aurora kinase A; 1.8 µM against Aurora kinase B; over 10 µM in experiment [2]; over 10 µM in experiment [3]; 8.8 µM in experiment [5]. The compound further registered an IC50 in experiment [6] of 6.5 µM.

Regarding `CN1CCN(c2ccnc(Nc3ccc(-c4nc5ccccc5s4)cc3)n2)CC1`, the IC50 against Insulin receptor is over 10 µM; against Aurora kinase A, 0.84 µM; against Aurora kinase B, over 10 µM; in experiment [2], over 10 µM; in experiment [3], over 10 µM; in experiment [5], over 10 µM. Besides, the IC50 in experiment [6] came to 5.2 µM.

`c1ccc2sc(-c3ccc(Nc4ncnc5ccsc45)cc3)nc2c1`: the concentration for half-maximal inhibition (IC50) in experiment [1] was over 10 µM; at Insulin receptor, over 10 µM; against Aurora kinase A it was 2.8 µM; at Aurora kinase B it was 0.72 µM; in experiment [2] it was over 10 µM; in experiment [3] it was over 10 µM. Moreover, the half-inhibitory concentration (IC50) (in experiment [4]; in experiment [5]; on Angiopoietin-1 receptor; in [6]) was over 10 µM in each case.

Consider `COc1nc(Nc2ccc(-c3nc4ccccc4s3)c(OC)c2)c2cc[nH]c2n1`, for which the IC50 is 2.1 µM in [1]; over 10 µM against Insulin receptor; over 10 µM against Aurora kinase A; over 10 µM against Aurora kinase B; over 10 µM in experiment [2]; 5.1 µM in [3]. The IC50 in [4] is 2.9 µM; in experiment [5], 0.96 µM; against Angiopoietin-1 receptor, 2.5 µM; in experiment [6], 7.7 µM.

On to `c1ccc2sc(-c3ccc(Nc4ncnc5[nH]ccc45)cc3)nc2c1`, for which the IC50 in experiment [1] is 1.5 µM; on Insulin receptor it was 6.95 µM; on Aurora kinase A, 8 µM; at Aurora kinase B, over 10 µM; in experiment [2] it was 3.1 µM; in [3], 1.3 µM. The IC50 in experiment [4] amounted to 1.5 µM; in experiment [5] it was 1.2 µM; at Angiopoietin-1 receptor, 1.9 µM; in [6], 2.1 µM.

As to `CNc1nccc(Nc2ccc(-c3nc4ccccc4s3)cc2)n1`, the IC50 is 9.7 µM at Insulin receptor; over 10 µM against Aurora kinase A; over 10 µM at Aurora kinase B; over 10 µM in experiment [2]; over 10 µM in [3]; 8.9 µM in experiment [5]. Besides, the IC50 in experiment [6] was 6.9 µM.

Turning to `Fc1cc(-c2nc3ccccc3s2)ccc1Nc1ncnc2ccsc12`, the IC50 in [1] was over 10 µM; against Insulin receptor, over 10 µM; on Aurora kinase A, 4 µM; on Aurora kinase B, 0.29 µM; in experiment [2], over 10 µM; in [3], over 10 µM. Further, the IC50 in experiment [4] was over 10 µM; in [5], over 10 µM; at Angiopoietin-1 receptor it was 4.1 µM; in experiment [6], over 10 µM.

As for `CN(C)c1ccnc(Nc2ccc(-c3nc4ccccc4s3)cc2)n1`, the IC50 (against Insulin receptor; at Aurora kinase A; against Aurora kinase B; in [3]; in experiment [5]) was over 10 µM in each case.

Take `Clc1cc(Nc2ncnc3ccsc23)ccc1-c1nc2ccccc2s1`: the concentration for half-maximal inhibition (IC50) (in experiment [1]; on Insulin receptor; on Aurora kinase A; on Aurora kinase B; in experiment [2]; in [3]) was over 10 µM throughout. Moreover, the IC50 was over 10 µM in experiment [4], over 10 µM in experiment [5], 4.4 µM on Angiopoietin-1 receptor and over 10 µM in experiment [6].

In the case of `Cc1cc(Nc2ccnc(Nc3ccc(-c4nc5ccccc5s4)cc3)n2)n[nH]1`, the IC50 on Insulin receptor was over 10 µM; against Aurora kinase A it was 0.37 µM; on Aurora kinase B, 7 µM; in experiment [3] it was over 10 µM; in experiment [5], over 10 µM.

`CNc1ccnc(Nc2ccc(-c3nc4ccccc4s3)cc2)n1` showed an IC50 on Aurora kinase A of 1.5 µM.

As for `COc1cc2nc(Nc3cc(C)[nH]n3)nc(Nc3cccc(-c4nc5ccccc5s4)c3)c2cc1OC`, the IC50 against Aurora kinase A was 5.5 µM; on Aurora kinase B it was over 10 µM; against Angiopoietin-1 receptor, 4.4 µM.

As to `COc1cc(Nc2nccc(Nc3cc(C)n[nH]3)n2)ccc1-c1nc2ccccc2s1`, the IC50 against Insulin receptor was over 10 µM; against Aurora kinase A, 0.32 µM; on Aurora kinase B, 3.1 µM; in [2], over 10 µM; in [3], over 10 µM; in [5], over 10 µM. In experiment [6], this compound registered a 50% inhibitory concentration (IC50) of over 10 µM.

As for `CNc1cc(Nc2ccc(-c3nc4ccccc4s3)cc2)ccn1`, the IC50 (at Insulin receptor; on Aurora kinase A; at Aurora kinase B; in [2]; in experiment [3]; in experiment [5]) was over 10 µM throughout. Besides, the IC50 in experiment [6] worked out at 6 µM.

Take `COc1cc(Nc2ncnc3ccsc23)ccc1-c1nc2ccccc2s1`: the IC50 (in [1]; against Insulin receptor; against Aurora kinase A; against Aurora kinase B; in experiment [2]; in [3]) was over 10 µM each time. In addition, the IC50 (in experiment [4]; in experiment [5]; against Angiopoietin-1 receptor; in experiment [6]) was over 10 µM in each case.

Regarding `COc1cc(Nc2ncnc3[nH]ccc23)ccc1-c1nc2ccccc2s1`, the IC50 was over 10 µM in experiment [1]; over 10 µM against Insulin receptor; over 10 µM at Aurora kinase A; over 10 µM on Aurora kinase B; 1.6 µM in experiment [2]; 0.72 µM in experiment [3]. Moreover, the IC50 in experiment [4] was 3.6 µM; in experiment [5] it was over 10 µM; against Angiopoietin-1 receptor, 8.6 µM; in experiment [6], over 10 µM.

Take `COc1nc(Nc2ccc(-c3nc4ccccc4s3)cc2)c2cc[nH]c2n1`: the concentration for half-maximal inhibition (IC50) in experiment [1] is 6.4 µM; on Insulin receptor, over 10 µM; against Aurora kinase A, over 10 µM; against Aurora kinase B, over 10 µM; in [2] it was over 10 µM; in experiment [4], 4.4 µM. In addition, the IC50 in experiment [5] is 10 µM; against Angiopoietin-1 receptor it was 8.7 µM; in [6], over 10 µM.

As for `c1ccc2sc(-c3ccc(Nc4ncnc5nc[nH]c45)cc3)nc2c1`, the IC50 in [1] was over 10 µM; on Insulin receptor, over 10 µM; against Aurora kinase A, over 10 µM; against Aurora kinase B it was over 10 µM; in experiment [3] it was 7.8 µM; in experiment [4], over 10 µM. In experiment [5], the IC50 is over 10 µM.

On to `CNC(=O)c1cc(Nc2ccc(-c3nc4ccccc4s3)cc2)ccn1`, for which the IC50 is over 10 µM at Insulin receptor; over 10 µM against Aurora kinase A; over 10 µM against Aurora kinase B; 1.1 µM in experiment [2]; 2 µM in [3]; 3.6 µM in experiment [5]. In addition, the IC50 in experiment [6] is over 10 µM.

The IC50 is the concentration that gives 50% inhibition. High values mean lower potency, low ones higher potency.
